# Measured values reported in patent publication US11739083B2, “Disposable sensor chip with reagent including 2-substituted benzothiazolyl-3-substituted phenyl-5-substituted sulfonated phenyl-2H-tetrazolium salt” (TERUMO KABUSHIKI KAISHA, priority 2016, dated 2023).
# Tests used:
# [1] = Maximum absorption wavelength (λmax) of formazan-nickel chelate by spectrophotometer; assay type: physicochemical; conditions: chelate of formazan and nickel ion, aqueous MOPS, cell length 10 mm, n=1
# Procedure: 10 mM aqueous solution of MOPS was added to each of the formazan compounds so as to obtain a final concentration of […], and thereby 100 μL of a sample was produced. At this time, all of the samples were red-brown in color. Apart from this, a 1 M aqueous solution of nickel ion was produced.
# For mixed solutions of various compounds in an aqueous solution of formazan and an aqueous solution of nickel, the spectra were measured with a spectrophotometer (measurement cell length: 10 mm) (n=1). Based on each of the spectra, the maximum absorption wavelength (λmax) (nm) of each of the compounds in formazan was determined. From FIG. 1, it is understood that the maximum absorption wavelength (λmax) of the chelate compound of formazan compound 1 and nickel ion is 630 nm.
# The absorbance at the maximum absorption wavelength is denoted as 100%.
# [2] = Evaluation Example 3: estimation of molar extinction coefficient; assay type: physicochemical; conditions: colored chelate compound of formazan and Ni2+ at λmax=635 nm; FIG. 18
# Procedure: A measurement solution was produced in the same manner as described in the section for the evaluation of the chelation rate and the maximum absorption wavelength (λmax), using the tetrazolium compound 1 of Example 1.
# Estimation of the molar extinction coefficient was carried out using the blood glucose meter sensor of FIG. 13. At this time, it is assumed that tetrazolium compound 1 reacts with glucose at a ratio of 1:1 (molar ratio). The concentration (mol/L) of β-glucose include in the spotted aqueous glucose solution was designated as x, and the value obtained by calculating the absorbance at 630 nm of the blood glucose meter sensor having aqueous glucose solution spotted thereon, to a value per 1 cm, was designated as y. The gradient of a straight line obtained at that time is designated as the molar extinction coefficient (calculated based on a glucose molecular weight 180.16, and a β-glucose ratio in the solution of 62%).
# FIG. 18 presents a graph obtained when the concentration (mol/L) of β-glucose was used as x value, and the absorbance at λmax=635 nm of colored chelate compound of formazan and Ni^2+, which was calculated into a value per 1 cm (abs/cm), was used as y value. From the graph, the molar extinction coefficient at λmax=635 nm of a colored chelate compound of formazan and Ni^2+ is ε=22,594 L/mol·cm.
# [3] = Evaluation of stability (absorbance increase of measurement solution over 6 hours); conditions: FIG. 3; absorbance increase per hour over 6 hours
# Procedure: To 0.02 mmol of each compound, 75 μL of RO water and 100 μL of a 0.5 M MOPS solution (pH 7.2) were added, and the compound was dissolved therein. The solution was used as a sample.
# To 175 μL of this sample, 10 μL of the GDH solution, 5 μL of the m-PMS solution, and 10 μL of the nickel solution, all of which had been produced in the same manner as in the above section (Evaluation of sensitivity), were added, and thereby a measurement solution was produced.
# As a control, 85 μL of RO water and 100 μL of a 0.5 M MOPS solution (pH 7.2) were added to 11.6 mg of 2-benzothiazolyl-3-(4-carboxy-2-methoxyphenyl)-5-[4-(2-sulfoethylcarbamoyl)phenyl]-2H-tetrazolium (WST-4), and the compound was dissolved. Thus, a control sample was produced. […] Thus, a control reaction solution was produced.
# At the time of production of the measurement solution (0 hour), and after 1 hour, 2 hours, and 6 hours from the production, the spectra of the measurement solutions produced as described above were measured using a spectrophotometer (measurement cell length: 50 μm) (n=1). For each spectrum, the absorbance at the maximum absorption wavelength (λmax) of each compound as determined above was measured. The absorbances measured at the time of production of the measurement solution (0 hour) and after 6 hours from the production were designated as Abs0 h and Abs6 h, respectively. […]
smiles,measurement,setting,value
COc1ccc2nc(-n3nc(-c4ccc(S(=O)(=O)O)cc4S(=O)(=O)[O-])n[n+]3-c3ccc(OC)c(S(=O)(=O)O)c3)sc2c1 [Example 1],Maximum absorption wavelength (λmax),[1],630 nm
same,molar extinction coefficient ε,[2],"22,594 L/mol·cm"
same,[(Abs6 h−Abs0 h)/6] value,[3],about 0.008
